Target: Jak2 (Homo sapiens, UniProt O60674)
Type: biochemical

Chain of Jak2 (O60674 whole entry): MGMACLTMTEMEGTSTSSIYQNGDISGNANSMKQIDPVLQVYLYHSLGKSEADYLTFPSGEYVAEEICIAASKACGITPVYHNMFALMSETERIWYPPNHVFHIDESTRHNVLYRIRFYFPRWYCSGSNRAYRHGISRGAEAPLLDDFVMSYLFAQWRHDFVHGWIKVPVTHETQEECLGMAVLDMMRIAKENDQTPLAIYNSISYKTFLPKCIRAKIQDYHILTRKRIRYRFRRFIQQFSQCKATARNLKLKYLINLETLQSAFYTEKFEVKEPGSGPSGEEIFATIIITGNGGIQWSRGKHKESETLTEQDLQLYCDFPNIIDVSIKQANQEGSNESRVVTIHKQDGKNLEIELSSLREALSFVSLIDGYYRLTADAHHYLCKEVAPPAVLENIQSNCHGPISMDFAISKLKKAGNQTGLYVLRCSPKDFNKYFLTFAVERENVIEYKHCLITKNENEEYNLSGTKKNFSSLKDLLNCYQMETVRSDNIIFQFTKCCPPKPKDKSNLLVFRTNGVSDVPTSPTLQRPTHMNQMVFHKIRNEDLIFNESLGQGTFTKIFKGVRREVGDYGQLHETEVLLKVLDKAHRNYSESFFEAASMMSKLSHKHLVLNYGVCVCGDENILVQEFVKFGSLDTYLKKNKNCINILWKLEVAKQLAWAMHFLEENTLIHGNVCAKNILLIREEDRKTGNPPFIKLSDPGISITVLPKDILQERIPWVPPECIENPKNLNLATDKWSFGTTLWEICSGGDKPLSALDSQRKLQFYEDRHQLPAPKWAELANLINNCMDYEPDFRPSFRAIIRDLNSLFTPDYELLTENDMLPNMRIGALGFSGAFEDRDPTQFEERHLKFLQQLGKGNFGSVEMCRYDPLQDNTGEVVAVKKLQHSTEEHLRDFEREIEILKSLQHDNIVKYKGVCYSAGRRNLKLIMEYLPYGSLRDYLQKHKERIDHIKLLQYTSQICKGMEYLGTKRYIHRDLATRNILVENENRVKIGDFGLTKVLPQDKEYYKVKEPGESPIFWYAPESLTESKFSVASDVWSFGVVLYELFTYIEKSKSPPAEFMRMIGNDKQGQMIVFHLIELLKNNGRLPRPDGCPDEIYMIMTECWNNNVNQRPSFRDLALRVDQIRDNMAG

Q: How did the Ki turn out when `NC(=O)Nc1sc(-c2ccc(F)cc2)cc1C(N)=O` [TPCA-1, 2-[(Aminocarbonyl)amino]-5-(4-fluorophenyl)-3-thiophenecarboxamide] was run?
A: The Ki was ~9 nM.
